Laboratory results: patent US7125671B2, “Nucleic acid amplification with terminal-phosphate labeled nucleotides” (GE Healthcare Bio-Sciences Corp., priority 2003, dated 2006)

Legend:
[1] = Non-enzymatic hydrolysis of dT4P-DDAO in the presence of MnCl2, effect of other salts (FIG. 5); conditions: 10 or 25 mM salt; 0.5 mM MnCl2; 25 mM Hepes pH 8.1; 95° C. for 60 minutes
Experimental: Twenty μl of 25 mM Hepes, pH 8.1, containing 0.5 mM MnCl2, 1 μm dT4P-DDAO and 10 or 25 mM inorganic or organic salt (see FIG. 5) was heated at 95° C. for 60 minutes. 4 μl of each sample was treated with BAP as described above and read on Tecan ultra plate reader. An unheated sample with MnCl2 (water lane) and a heated sample without Hepes and MnCl2 were used as controls. Fluorescence counts were converted into % degradation as described above.

T. ba polymerase = assay: PCR amplification with terminal-phosphate labeled nucleoside polyphosphates in the presence of stabilizing additives (FIG. 6); assay type: biochemical, Thermococcus barosii; conditions: 10–25 mM salt; dA4P-Me, dT4P-Me, dC4P-Me, dG4P-FlEt; 0.25 mM MnCl2; M13 DNA; 35 cycles
Experimental: Polymerase chain reaction (PCR) mixtures (20 μl) contained 25 mM Hepes (pH 8.1), 10 mM KCl, 2 mM MgSO4, 0.25 mM MnCl2, 1 mg/ml bovine serum albumin, 0.01% (v/v) Tween-20 and 10–25 mM salt as shown in FIG. 6. Each sample also contained 20 μm each of dA4P-Me, dT4P-Me, dC4P-Me, 200 μm dG4P-FlEt, 0.006 units/μl BAP, 2 units of T. ba polymerase, 0.1 μm −40 M13 forward primer, 0.1 μm −28 M13 reverse primer and 0.2 ng M13 DNA. In addition to the terminal-phosphate labeled nucleotide, terminal methyl-blocked dNTP's were used instead of normal dNTP's to prevent degradation by BAP (phosphatase). Latter is required for signal generation from dye-polyphosphate after the nucleotide is incorporated into DNA by polymerase. Reactions were carried out for 35 thermal cycles of 90° C., 30 sec.; 55° C., 30 sec.; and 65° C., 300 sec. Reaction products were loaded onto 1.6% agarose gels. The gels were stained with SYBR Gold (Molecular Probes) according to the manufacturers' instructions and scanned at 532 nm using a Typhoon fluorescence scanner (Amersham Biosciences). Gel size markers were a 100 bp ladder (Amersham Biosciences).

In the case of O=C(O)CP(=O)(O)O [phosphonoacetate], the “stabilization of dT4P-DDAO (% degradation)” value [1] was “stabilize the nucleotide” and the “PCR product formation in the presence of the additive” value (from here on “PCR product formation in the presence”) (T. ba polymerase) was “No product formed”.

For CCCS(=O)(=O)O [propane sulfonate], the “stabilization of dT4P-DDAO (% degradation)” value [1] was “minimal”.

With [Na+].[Na+].[O]=[Mo](=[O])([O-])[O-] [sodium molybdate] the “PCR product formation in the presence” value (T. ba polymerase) was “PCR product was separated”.

For [Na+].[Na+].[O]=[W](=[O])([O-])[O-] [sodium tungstate], the “PCR product formation in the presence” value (T. ba polymerase) was “PCR product was separated”.

In the case of sodium vanadate, the “PCR product formation in the presence” value (T. ba polymerase) was “No product formed”.
